# According to patent US3980646A, “3-Methylpyrazole-5-carboxylates and medicaments containing these compounds” (Wulfing; Johann A., priority 1974, dated 1976):
# Values joined by “and” are separate entries in the source; they are usually repeats but may differ in a detail not shown here. Identical values can stand only once. “Also recorded” adds a separate entry of the source.
# Experiments:
# free fatty acids (FFS) = experiment: influence on the free fatty acids (FFS) in starved (hyperlipacidaemic) animals, hunger lipolysis; format: in vivo, rats (Wistar)
# Procedure: (§1) Investigations on a total of 260 Wistarrats were conducted with 7-[3-(N-methyl-N-2-hydroxyethyl)-amino-2-hydroxypropyl]-1,3-dimethylxanthine-3-methylpyrazole-5-carboxylate.
# Examination of the influence of 7-[3-(N-methyl-N-2-hydroxy-
# ethyl)-amino-2-hydroxypropyl]-1,3-dimethylxanthine-3-methyl-
# pyrazole-5-carboxylate on the serum fatty acids (FFS) of
# Male Rats, starve for 17 hours
# Dose: 100 mg/kg body weight, oral by esophagus probe,
# Blood removal: 1 hour after application
# pyrazole-5-carboxylate on the free fatty acids (FFS) in
# starved animals 1 hour after application
# Comparative examinations of the influence of 7-[3-(N-methyl-
# carboxylic acid on the free fatty acids (FFS) in starved
# animals 1 hour after application
# pyrazole-5-carboxylic acid on the free fatty acids (FFS)
# in starved animals 6 hours after application
# serum fatty acids (FFS) = experiment: influence on the serum fatty acids (FFS) of hyperlipacidaemic rats, alcohol lipolysis; format: in vivo, rats (Wistar); settings: alcohol 2 g/kg i.v., 100 mg/kg oral 3 hours before blood removal
# Procedure: as §1
# rats, starve for 5 hours,
# Dose: alcohol 2g/kg body weight in 20% solution i.v.,
# Dose: active principle according to the invention
# 100 mg/kg body weight, oral by esophagus probe
# 3 hours before blood removal
# [1] = general pharmacological effects (lipolysis inhibition, lipid lowering, tachyphylaxis, toxicity); format: in vivo
# serum cholesterol = experiment: influence on the serum cholesterol of repeated application; format: in vivo, rats male (Wistar); settings: for serum cholesterol: individual animals, starve for 5 hours, 100 mg/kg; for serum cholesterol / serum cholesterol, mean (x10): 100 mg/kg x/day p.o.; for serum cholesterol, mean (x10): control 71.28
# Procedure: Influence on the serum cholesterol of repeated application of
# 100 mg/kg x/day p.o. rats male, starve for 5 hours, ether narcosis, heart
# last application 1 hour before killing (cf. FIG. 3)
# serum triglycerides (TG) = experiment: influence on the serum triglycerides (TG) in normal animals; format: in vivo, Rats (Wistar); settings: for TG: starve for 5 hours; for TG, mean (x): 1 hour
# Procedure: Rats, starve for 5 hours
# 40 mg/kg body weight of active principle according to
# the invention, oral by esophagus probe 1 hour before
# 12 mg/kg body weight of 3-methylpyrazole-5-carboxylic
# acid, equim. dosage, 1 hour before removal of blood
# Dose: 10 mg/kg body weight of active principle according to the
# invention, oral by esophagus probe 1 hour before blood removal
# Dose: 3 mg/kg body weight of 3-methylpyrazole-5-carboxylic acid,
# equim. dosage, oral by esophagus probe 1 hour before
# cholesterol = experiment: assaying for cholesterol in starved rats; format: in vivo, Male Rats (Wistar)
# Procedure: Assaying for cholesterol
# Male Rats, starve for 18 hours, ether narcosis, heart puncture
# 100 mg/kg of 7-[3-(N-methyl-N-
# mice = experiment: LD50 in mice; format: in vivo
compound,measurement,setting,value
"CN(CCO)CC(O)Cn1cnc2c1c(=O)n(C)c(=O)n2C.Cc1cc(C(=O)O)[nH]n1 (stereo not drawn) [7-[3-(N-methyl-N-2-hydroxyethyl)-amino-2-hydroxypropyl]-1,3-dimethylxanthine-3-methylpyrazole-5-carboxylate]",FFS,"free fatty acids (FFS); Table 4 dose-effect, starved animals, 1 hour, 50 mg/kg, n 10, control 1.08, **p<0.001",0.40 μval/ml
same,FFS,"free fatty acids (FFS); Table 4 dose-effect, starved animals, 1 hour, 100 mg/kg, n 15, control 0.91, *p<0.001",0.46 μval/ml
same,FFS,"free fatty acids (FFS); Table 5, individual animals, starved, 1 hour after application, 50 mg/kg",0.39 μval/ml and 0.44 μval/ml and 0.46 μval/ml and 0.40 μval/ml and 0.35 μval/ml and 0.45 μval/ml and 0.37 μval/ml and 0.32 μval/ml and 0.41 μval/ml
same,"FFS, mean","free fatty acids (FFS); Table 5, mean, n=10, starved, 1 hour after application, 50 mg/kg, control 1.08, p<0.001",0.40 μval/ml
same,FFS,"free fatty acids (FFS); Table 6, individual animals, starved, 6 hours after application, 50 mg/kg BW p.o., 50 mg/kg",0.39 μval/ml and 0.35 μval/ml and 0.43 μval/ml and 0.58 μval/ml and 0.54 μval/ml and 0.63 μval/ml and 0.77 μval/ml and 0.52 μval/ml and 0.51 μval/ml and 0.96 μval/ml and 0.59 μval/ml and 0.78 μval/ml and 0.53 μval/ml and 0.44 μval/ml and 0.64 μval/ml and 0.85 μval/ml and 0.32 μval/ml
same,"FFS, mean (x)","free fatty acids (FFS); Table 6, mean, n=21, starved, 6 hours after application, 50 mg/kg BW p.o., control 0.86, p<0.001",0.57 μval/ml
same,lipolysis-inhibiting effect compared with free 3-methylpyrazole-5-carboxylic acid,"free fatty acids (FFS); equimolar dosage, especially 6 hours after application",more pronounced than that of the free 3-methylpyrazole-5-carboxylic acid
same,FFS,"serum fatty acids (FFS); individual animals, 100 mg/kg",0.45 μval/ml and 0.58 μval/ml and 0.59 μval/ml and 0.60 μval/ml and 0.52 μval/ml and 0.56 μval/ml and 0.43 μval/ml and 0.66 μval/ml and 0.67 μval/ml and 0.53 μval/ml
same,"FFS, mean (φ)","serum fatty acids (FFS); mean, control φ 0.64, alcohol series φ 0.79, p<0.001",0.56 μval/ml
same,influence on free fatty acids (FFS),"[1]; doses down to 2 mg/kg, normal and hyperlipacidaemic rats (starved animals, alcohol animals)",significantly influences the free fatty acids (FFS)
same,"effect (lipolysis inhibition, reducing triglyceride and cholesterol level, low toxicity)",[1]; result in words,particularly marked effect
same,effect on the serum cholesterol on repeated application,"serum cholesterol; 100 mg/kg over 4 days, result in words","uniform and, in some cases, even increased effect; also recorded: still significantly reduced"
same,serum cholesterol,serum cholesterol; 1st day,71.70 mg % and 49.06 mg % and 51.89 mg % and 67.92 mg % and 68.87 mg % and 52.83 mg % and 50.94 mg %
same,"serum cholesterol, mean (x10)",serum cholesterol; 1st day,58.68 mg %
same,serum cholesterol,serum cholesterol; 2nd day,37.4 mg % and 54.2 mg % and 55.2 mg % and 69.9 mg % and 65.0 mg % and 69.1 mg % and 39.4 mg % and 47.3 mg % and 49.3 mg % and 51.2 mg %
same,"serum cholesterol, mean (x10)",serum cholesterol; 2nd day,53.8 mg %
same,serum cholesterol,serum cholesterol; 3rd day,52.36 mg % and 71.24 mg % and 67.81 mg % and 50.64 mg % and 57.51 mg % and 64.38 mg % and 62.66 mg % and 68.67 mg % and 60.94 mg %
same,"serum cholesterol, mean (x10)",serum cholesterol; 3rd day,62.75 mg %
same,serum cholesterol,serum cholesterol; 4th day,42.98 mg % and 37.19 mg % and 52.07 mg % and 64.46 mg % and 80.99 mg % and 47.11 mg % and 65.29 mg % and 58.68 mg % and 50.41 mg % and 43.80 mg %
same,"serum cholesterol, mean (x10)",serum cholesterol; 4th day,54.30 mg %
same,TG,"serum triglycerides (TG); Table 7, individual animals, 40 mg/kg oral 1 hour before removal of blood, 40 mg/kg",71.6 mg % and 22.9 mg % and 15.8 mg % and 18.6 mg % and 41.5 mg % and 40.1 mg % and 58.7 mg % and 32.9 mg % and 45.8 mg %
same,"TG, mean (x)","serum triglycerides (TG); Table 7, mean, 40 mg/kg oral, control x = 66.4, p<0.0027>Ko",36.3 mg %
same,TG,"serum triglycerides (TG); Table 8, individual animals, 10 mg/kg oral 1 hour before blood removal, 10 mg/kg",48.7 mg % and 54.4 mg % and 83.1 mg % and 55.8 mg % and 74.4 mg % and 81.6 mg % and 51.5 mg % and 40.1 mg %
same,"TG, mean (x)","serum triglycerides (TG); Table 8, mean, 10 mg/kg oral, control x = 86.3, p<0.05>Ko",59.8 mg %
same,serum triglyceride level of normal animals,"serum triglycerides (TG); doses down to 10 mg/kg, result in words",significantly reduces the serum triglyceride level
same,cholesterol level of starved rats,"cholesterol; 100 mg/kg perorally, result in words",significantly reduces the cholesterol level
same,Cholesterol,"cholesterol; individual animals, starve for 18 hours, 100 mg/kg per os 1 hour before killing, 100 mg/kg",78.45 mg % and 50.86 mg % and 57.76 mg % and 47.71 mg % and 62.07 mg % and 48.28 mg % and 65.52 mg % and 56.03 mg % and 38.79 mg %
same,"Cholesterol, mean (x10)","cholesterol; mean of 10, starve for 18 hours, 100 mg/kg per os 1 hour before killing, control 75.69, p<0.001",57.07 mg %
same,LD50,mice; i.v.,540 mg/kg
same,LD50,mice; per oral,more than 1000 mg/kg
